# From publication PMC9841525, “Chemical Blockage of the Mitochondrial Rhomboid Protease PARL by Novel Ketoamide Inhibitors Reveals Its Role in PINK1/Parkin-Dependent Mitophagy” (Journal of Medicinal Chemistry, 2022)
# *1 amine or outer side, *2 acyl side, *3 side chain or, on linkers, in order; H or OH if unused. Where a SMILES comes first, the peptide text is derived from it. [ ]: non-standard residue; d: D form. The star is where a group is joined. NH(4-phenylbutyl) = c1ccc(CCCCN*)cc1; X1 = C[C@H](N[*:1])C(=O)C(=O)[*:2]
# System: PINK1
# Assay: PINK1 processing and stabilization, endogenous PINK1, sodium carbonate fractionation and immunoblot
# Type: cell-based, human
# Conditions: HEK293T cells, 5 μM, 8 h
# Description: Inducible stable Flp-In HEK293 T-REx cells expressing PINK1 were described previously.[33] HEK293 T-REx PINK1 and HEK293T cells were grown in DMEM (Gibco) supplemented with 10% (v/v) fetal bovine serum (ThermoFisher), 1% (v/v) GlutaMAX (Gibco), 1% (v/v) sodium pyruvate (Gibco), 125 μg/mL hygromycin (Invitrogen), and 10 μg/mL blasticidin (Gibco) or DMEM supplemented with 10% (v/v) fetal bovine serum, respectively, at 37 °C in 5% (v/v) CO2. For microscopy, cells were seeded on poly-L-lysine (Sigma)-coated slides. Transient plasmid transfections were performed using 25 kDa linear polyethylenimine (Polysciences). Plasmid (100 ng) encoding HA-Parkin-IRES-GFP, mito-mCherry or Parkin-mEGFP, or 500 ng plasmid encoding PGAM5-FLAG were used per 6-well. Total transfected DNA was 2 μg/well. For siRNA transfection, 2 × 10^5 cells were seeded per 6-well and on the next day transfected with 20 nM siRNA-oligonucleotide using lipofectamine RNAiMAX (ThermoFisher). Cells were analyzed 27 h post-transfection or five days post-siRNA-transfection. HEK293 T-REx PINK1 cells were induced with 0.3 μg/mL doxycycline for 24 h before further processing. […] For quantification, ImageJ was used (http://rsb.info.nih.gov/ij/). Immunoblots shown are representative of at least three independent experiments and were evaluated using Excel and GraphPad Prism 9 (GraphPad Software, Inc.).
smiles,measurement,setting,value
CC(=O)N[C@@H](C)C(=O)N[C@H](C(=O)N[C@@H](Cc1ccccc1)C(=O)N[C@@H](CC(C)C)C(=O)N[C@@H](C)C(=O)C(=O)NCCCCc1ccccc1)C(C)C [compound 5] (Ac-AVFL[X1]-{NH(4-phenylbutyl)}),Effect on endogenous PINK1 cleavage and stabilization,,endogenous PINK1 remains largely uncleaved and is stabilized in its 66 kDa form
same,Effect on endogenous PINK1 cleavage and stabilization,listed as Compound 5,inhibits PARL-catalyzed PINK1 cleavage under endogenous expression levels
